The record followed here is PubChem BioAssay AID1508599 (Sanford-Burnham Center for Chemical Genomics, 2020).

“And” between values parts separate entries of the source, which are not always exact repeats. Equal entries are not always repeated. The source made the active and inactive calls.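 Rule for the calls: active = IC50 under 30000 nM, about half a log past the top tested dose; inactive = the rest.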

In this assay the target is Baculoviral IAP repeat-containing protein 2 (Homo sapiens) (UniProt Q13490). Kind of assay: cIAP1 BIR3–SMAC binding inhibitors, SAR follow-up, biochemical (AID 1508599). As to conditions: cIAP1 BIR3 / rhodamine-SMAC peptide fluorescence polarization.
Sequence of Baculoviral IAP repeat-containing protein 2 (Homo sapiens) (Q13490 whole entry, looked up): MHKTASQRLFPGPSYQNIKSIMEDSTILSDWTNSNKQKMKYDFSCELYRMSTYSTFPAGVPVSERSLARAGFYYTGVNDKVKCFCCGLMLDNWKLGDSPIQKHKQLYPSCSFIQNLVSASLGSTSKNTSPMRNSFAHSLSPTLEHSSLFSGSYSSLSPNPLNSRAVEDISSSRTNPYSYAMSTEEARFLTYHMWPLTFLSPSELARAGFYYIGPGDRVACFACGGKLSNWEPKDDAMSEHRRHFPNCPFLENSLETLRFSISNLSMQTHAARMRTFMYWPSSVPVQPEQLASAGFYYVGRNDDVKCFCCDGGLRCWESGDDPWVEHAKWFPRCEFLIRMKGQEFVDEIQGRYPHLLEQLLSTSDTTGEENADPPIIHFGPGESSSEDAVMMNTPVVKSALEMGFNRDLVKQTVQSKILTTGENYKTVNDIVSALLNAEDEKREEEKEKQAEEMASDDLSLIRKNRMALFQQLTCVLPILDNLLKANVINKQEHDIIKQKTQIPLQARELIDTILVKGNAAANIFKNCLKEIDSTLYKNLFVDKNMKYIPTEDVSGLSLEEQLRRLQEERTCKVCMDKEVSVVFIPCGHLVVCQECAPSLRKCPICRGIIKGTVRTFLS
For the compound `CN[C@@H](C)C(=O)N[C@H]1CCO[C@H]2CCC(C(=O)N[C@H]3CCCc4ccccc43)N2C1=O` (some centres not stated), the concentration for half-maximal inhibition (IC50) is 0.072 µM.

With `CN[C@@H](C)C(=O)N[C@H]1CCO[C@H]2c3ccccc3C(C(=O)N[C@@H]3CCCc4ccccc43)N2C1=O` (some centres not stated), the half-inhibitory concentration (IC50) was 8.44 µM.

Turning to `CN[C@@H](C)C(=O)N[C@H]1CCCN[C@H]2CCC(C(=O)N[C@H]3CCCc4ccccc43)N2C1=O` (some centres not stated), the IC50 is 0.789 µM.

In the case of `CN[C@@H](C)C(=O)N[C@H]1CCO[C@H]2CC(C)(C)C(C(=O)Nc3ccccc3SSc3ccccc3NC(=O)C3N4C(=O)[C@@H](NC(=O)[C@H](C)NC)CCO[C@H]4CC3(C)C)N2C1=O` (some centres not stated), the concentration for half-maximal inhibition (IC50) was 0.505 µM.

For `CN[C@@H](C)C(=O)N[C@H]1CCS(=O)(=O)[C@H]2CC(C)(C)[C@@H](C(=O)N[C@@H]3CCCc4ccccc43)N2C1=O`, the IC50 was > 100 µM (inactive).

With `CN[C@@H](C)C(=O)N[C@H]1CCN[C@H]2CCC(C(=O)N[C@@H]3CCCc4ccccc43)N2C1=O` (some centres not stated), the concentration for half-maximal inhibition (IC50) is 0.113 µM.

On to `CN[C@@H](C)C(=O)N[C@H]1CCO[C@H]2CC[C@@H](C(=O)Nc3cccc4ccccc34)N2C1=O`, for which the half-inhibitory concentration (IC50) is 0.047 µM.

With `CN[C@@H](C)C(=O)N[C@H]1CCCN(C(C)=O)C2CCC(C(=O)N[C@H]3CCCc4ccccc43)N2C1=O` (some centres not stated), the IC50 was 0.272 µM and 0.037 µM.

Regarding `CN[C@@H](C)C(=O)N[C@H]1CCS(=O)(=O)[C@H]2CC[C@@H](C(=O)N[C@@H]3CCCc4ccccc43)N2C1=O`, the IC50 was 11.6 µM.

`CN[C@@H](C)C(=O)N[C@H]1CCS(=O)(=O)[C@H]2CC[C@H](C(=O)N[C@@H]3CCCc4ccccc43)N2C1=O`: the IC50 was > 100 µM (inactive).

As for `CN[C@@H](C)C(=O)N[C@H]1CCO[C@H]2CC[C@@H](C(=O)N[C@@H]3CCOc4ccccc43)N2C1=O`, the concentration for half-maximal inhibition (IC50) was 1.3 µM.

For `CN[C@@H](C)C(=O)N[C@H]1CCO[C@H]2CCC(C(=O)NC(c3ccccc3)c3ccccc3)N2C1=O` (some centres not stated), the half-inhibitory concentration (IC50) is 0.294 µM.

On to `CN[C@@H](C)C(=O)N[C@H]1CCSC2CCCC(C(=O)N[C@@H]3CCCc4ccccc43)N2C1=O` (some centres not stated), for which the IC50 is 0.363 µM and 2.52 µM and 0.605 µM.

For the compound `CN[C@@H](C)C(=O)N[C@H]1Cc2cccc(O)c2[C@H]2CC(C)(C)C(C(=O)N[C@@H]3CCCc4ccccc43)N2C1=O` (some centres not stated), the IC50 is 14.9 µM.

Consider `CN[C@@H](C)C(=O)N[C@H]1Cc2c([nH]c3ccccc23)[C@H]2CCC(C(=O)N[C@@H]3CCCc4ccccc43)N2C1=O` (some centres not stated), for which the IC50 was 0.093 µM.

As for `CN[C@@H](C)C(=O)N[C@H]1CCS[C@H]2CC[C@@H](C(=O)N[C@@H]3CCCc4ccccc43)N2C1=O`, the IC50 is 0.14 µM.

`CN[C@@H](C)C(=O)N[C@H]1CCO[C@H]2CC(C)(C)[C@@H](C(=O)N[C@@H]3CCCc4ccccc43)N2C1=O`: the IC50 was 0.21 µM.

With `CN[C@@H](C)C(=O)N[C@H]1CCO[C@H]2CCC(C(=O)Nc3cccc4ccccc34)N2C1=O` (some centres not stated), the IC50 was 0.263 µM.

`CN[C@@H](C)C(=O)N[C@H]1CCO[C@H]2CC[C@@H](C(=O)N[C@@H]3CCCc4ccccc43)N2C1=O`: the IC50 is 0.74 µM.

As to `CN[C@@H](C)C(=O)N[C@H]1CCO[C@H]2CC[C@@H](C(=O)n3ccc4ccccc43)N2C1=O`, the concentration for half-maximal inhibition (IC50) was 1.21 µM.

`CN[C@@H](C)C(=O)N[C@H]1Cc2cc(O)c(O)cc2[C@H]2CC(C)(C)C(C(=O)N[C@@H]3CCCc4ccccc43)N2C1=O` (some centres not stated): the IC50 was > 100 µM (inactive).

As to `CN[C@@H](C)C(=O)N[C@H]1Cc2cc(O)ccc2[C@H]2CC(C)(C)C(C(=O)N[C@@H]3CCCc4ccccc43)N2C1=O` (some centres not stated), the IC50 entry is “inactive”.

As for `CN[C@@H](C)C(=O)N[C@H]1CCS[C@H]2CC[C@H](C(=O)N[C@@H]3CCCc4ccccc43)N2C1=O`, the half-inhibitory concentration (IC50) is 1 µM.

For `CN[C@@H](C)C(=O)N[C@H]1CCO[C@H]2CC[C@H](C(=O)N[C@@H]3CCOc4ccccc43)N2C1=O`, the IC50 was > 100 µM (inactive).

With `CN[C@@H](C)C(=O)N[C@H]1CCCN[C@H]2CCC(C(=O)Nc3cccc4ccccc34)N2C1=O` (some centres not stated), the IC50 is 21.1 µM.

Take `CN[C@@H](C)C(=O)N[C@H]1CC(=O)N[C@H]2CC(C)(C)C(C(=O)N[C@@H]3CCCc4ccccc43)N2C1=O` (some centres not stated): the IC50 is 2 µM and 1.79 µM.

As for `CN[C@@H](C)C(=O)N[C@@H]1C(=O)N2C(C(=O)NC(c3ccccc3)c3ccccc3)CC[C@@H]2O[C@@H]1C` (some centres not stated), the IC50 was 0.235 µM.

Take `CN[C@@H](C)C(=O)N[C@@H]1C(=O)N2C(C(=O)Nc3cccc4ccccc34)CC[C@@H]2O[C@@H]1C` (some centres not stated): the IC50 is 0.078 µM.

Turning to `CN[C@@H](C)C(=O)N[C@H]1CCO[C@H]2CC3(CCCC3)C(C(=O)N[C@@H]3CCCc4ccccc43)N2C1=O` (some centres not stated), the IC50 is 1.35 µM.

In the case of `CC(=O)N(C)[C@@H](C)C(=O)N[C@H]1CCCN(C(C)=O)[C@H]2CCC(C(=O)Nc3cccc4ccccc34)N2C1=O` (some centres not stated), the concentration for half-maximal inhibition (IC50) was 6.85 µM.

Take `CN[C@@H](C)C(=O)N[C@H]1CCO[C@H]2CC[C@H](C(=O)n3ccc4ccccc43)N2C1=O`: the IC50 was 0.147 µM.

In the case of `CN[C@@H](C)C(=O)N[C@H]1CCS[C@H]2CCC(C(=O)N[C@H]3CCCc4ccccc43)N2C1=O` (some centres not stated), the IC50 was 0.157 µM.
